Data reported in patent publication US20140256663A1, “Amphotericin Analogous Compounds and Pharmaceutical Compositions Containing Them” (CENTRO DE INVESTIGACION Y DE ESTUDIOS AVANZADOS DEL …, priority 2010, published 2014).
Values after ≈ are worked out from the molar mass of the structure shown. Like-named read-outs stand apart in the source and are kept apart here.

What was measured:
Candida kruzei = assay: Antifungal activity in vitro by flow cytometry, Candida kruzei; type: cell-based; conditions: read-out: CF50 Candida kruzei
Method: (§1) The antifungal activity of the polyene macrolide derivate of the present invention was determined by flow cytometry method earlier described (Pinto et al., J. Medical Microbiology, 2009; 58, 1454-1462; Pina-Vaz and Rodriguez, Methods Mol. Biol. 2010; 638:281-289). For the test two strains of Candida albicans (ATCC 10231 and 752) and Candida kruzei were used. A cellular suspension of 1×10^6 UFC/mL was used, which has sown in 96-well plates. […] As controls were used: untreated yeasts (control of living cells), yeasts exposed to UV radiation (arrest, inhibition of proliferation), and yeasts exposed at temperature of 100° C. (dead yeasts). Cells were collected by centrifugation at 10,000×g for 10 min, they were washed once in phosphate buffer. […] of propidium iodide 0.1 mg/mL were added to the cell suspension. It was incubated during 30 minutes at room temperature and protected from light. Finally, the samples were analyzed by flow cytometry (Becton-Dickinson Facsc Calibur, laser argon 480 nm). The intrinsic parameters and fluorescence in the FL2 channel (yellow/orange fluorescence) for FUN and channel FL3 (red fluorescence, filter 630 nm) for propidium iodide were acquired and registered on a logarithmic scale for a minimum of 7500 events per sample. For data analysis, the quadrants were adjusted in a plot of data lines of fluorescence intensity of samples. […] These quadrants were used to quantify the percentile of cells showing altered fluorescence compared to drug-free controls.

[1] = system: Candida albicans ATCC 10231; assay: Antifungal activity in vitro by flow cytometry, Candida albicans ATCC 10231; type: cell-based
[2] = system: Candida albicans ATCC 752; assay: Antifungal activity in vitro by flow cytometry, Candida albicans ATCC 752; type: cell-based; conditions: read-out: CF50 Candida albicans ATCC 752
Method: as §1

human erythrocytes = assay: Hemolytic assay on human erythrocytes; type: cell-based; conditions: 1 hour
Method: The hemotoxicity of the polyene macrolide derivative of the present invention was determined by measuring the toxicity to human erythrocytes (values HE50) using a method established by Cybulska, et al. (Cybulska, B., Borowski, E. and Gary-Bobo, M. Relationship between ionophoric and hemolytic activities of perimycin A and vacidin A, two polyene macrolide antifungal antibiotics. Biochem Pharmacol. 1989; 38(11): 1755-1762). For determining the haematoxicity 2 mL blood were obtained and placed in a tube with EDTA. The number of erythrocytes was counted in a Neubauer chamber, and 1×10^7 cells/mL were placed in test tubes. The erythrocytes were resuspended in 450 μL of KCl 150 mM+Tris 3 mM buffer. The erythrocytes were treated with concentrations of 0.01, 0.1, 1, 10 y 100 μM and incubated in a water bath for 1 hour. They were then centrifuged at 1500 rpm for 15 seconds; 150 μL were taken from the supernatant and placed in 96-well plates; the optical density of each group was measured using a plate reader at a wavelength of 550 nm. We included one tube with the drug solvent (DMSO 1%) as internal control. We also included one tube only with erythrocytes and 500 μl of buffer KCl 150 mM+Tris 3 mM, which we consider as a negative control group and a tube with 500 μl of red cells and 35 mM NaCl (positive control).

[3] = Unit channel studies in chicken egg lecithin bilayers with cholesterol
Method: The activity is determined by the presence of the different channels formed by polyenes in the lipid bilayer (Cotero, et al., supra; Venegas, et al., supra). […] These values were determined by the technique of unit channel delineated above.
Unit channel studies were performed according to procedures described earlier (Cotero, et al., supra, Venegas, et al., supra). Required liposomal suspensions were prepared using lecithin with cholesterol or ergosterol. These suspensions were placed in an ultrasonic bath for 15 minutes to produce unilamellar vesicles. Subsequently, the suspension was placed in a 100 μl eppendorf and a lipid bilayer was formed on the tip of a micro-electrode. The unit channels of amphotericin and of the invented compounds were incorporated to this bilayer. The unit channel current of the various compounds was recorded with an electrometer, and then these records were analyzed by determining the activity of the compounds and the characteristics of the channels formed.
The activity is determined by the presence of the various channels formed by polyenes in the lipid bilayer (Cotero, et al., supra, Venegas, et al., supra). […] This conductance is the effect of all the channels present and was determined by the unit channel technique earlier described.

[4] = 200 μM compound, 30 mol % cholesterol, 27° C.

| SMILES | IC50 (Candida kruzei; 24 h) | IC50 ([1]; ATCC10231, 24 h, read-out: CF50 Candida albicans ATCC 10231) | IC50 ([2]; ATCC752, 24 h) | HE50 (Hemolysis 50) (human erythrocytes) | Opening probability, channel type I [3, 4] | Opening probability, channel type II [3, 4] | Opening probability, channel type III [3, 4] | Opening probability, channel type IV [3, 4] | Opening probability, channel type V [3, 4] | Opening probability, channel type VI [3, 4] | activity of transmembranal channels in the cholesterol membrane ([3]; in words, compared to AmB) | IC50 (Candida kruzei; 24 h at 37° C.) | MIC50 ([1]; ATCC10231, Compounds of the present invention) | IC50 ([2]; ATCC752, 24 h at 37° C.) | Average conductance cholesterol ([3]; AmB 6 μM, 30° C.) |
| --- | --- | --- | --- | --- | --- | --- | --- | --- | --- | --- | --- | --- | --- | --- | --- |
| COC(=O)[C@@H](Cc1c[nH]c2ccccc12)NC(=O)[C@@H]1C(O)C[C@@]2(O)C[C@@H](O)C[C@@H](O)[C@H](O)CC[C@@H](O)C[C@@H](O)CC(=O)OC(C)C(C)[C@H](O)C(C)/C=C/C=C/C=C/C=C/C=C/C=C/C=C/[C@H](OC3OC(C)C(O)C(N)C3O)CC1O2 (stereo partly shown) [A-7, N-(D)-tryptophanamide of AmB] | > 10 µM | 1.5 µM | 8.2 µM | 80 µM | 14% | 7% | <1% | <1% | <1% | N.O. | more reduced activity of transmembranal channels |  |  |  |  |
| C[C@@H]1[C@H](O)[C@@H](C)/C=C/C=C/C=C/C=C/C=C/C=C/C=C/[C@H](O[C@@H]2O[C@H](C)[C@@H](O)[C@H](N)[C@@H]2O)C[C@@H]2O[C@](O)(C[C@@H](O)C[C@@H](O)[C@H](O)CC[C@@H](O)C[C@@H](O)CC(=O)O[C@H]1C)C[C@H](O)[C@H]2C(=O)O [AmB, Amphotericin B] |  |  |  | 7 µM |  |  |  |  |  |  |  | > 10 µM | 0.2 µg/mL (≈ 0.216 µM) | 1 µM | 26.6 ± 9.9 fS |
